The values that follow come from publication PMC6934184, “Selective DNA-PKcs inhibition extends the therapeutic index of localized radiotherapy and chemotherapy” (The Journal of Clinical Investigation, 2019).

This assay addresses T1, PRKACB (PRKAC beta) (Homo sapiens, UniProt P22694).
T1 construct: purchased Thermo Fisher Scientific (Life Technologies) SelectScreen
In words: SelectScreen LanthaScreen. Type of assay: binding. Particulars: read-out: % displacement. Summed up: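 NU5455 was profiled across the SelectScreen Broad panel of kinase activity and binding assays. Z'LYTE reactions such as CSF1R ran at apparent Km ATP, while the Adapta CAMK1 assay used ATP listed as 10. Values are given as percent.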
(TR-FRET usually uses a lanthanide donor and a delayed reading to cut background.)

On to `CN(C(=O)CN1CCOCC1)c1ccc2sc3c(-c4cccc5c(=O)cc(N6CC7CCC(C6)O7)oc45)cccc3c2c1` [NU5455], for which the inhibition at 1 µM is -6.8%.
